Measured values as given in ChEMBL document CHEMBL5260836, “Combating Autoimmune Diseases With Retinoic Acid Receptor-Related Orphan Receptor-γ (RORγ or RORc) Inhibitors: Hits and Misses” (J Med Chem, 2018).
Converted amounts (≈) assume the structure as drawn. Each block holds one compound with its values, some of them ahead of it.

What was measured:
[1] = target: T1, Nuclear receptor ROR-gamma (Homo sapiens, UniProt P51449); test: Inverse agonist activity at human GAL4-RORgamma […] expressed in HEK293 cells measured after 24 hrs by ligand binding assay; type: cell-based
T1 sequence (P51449 whole entry): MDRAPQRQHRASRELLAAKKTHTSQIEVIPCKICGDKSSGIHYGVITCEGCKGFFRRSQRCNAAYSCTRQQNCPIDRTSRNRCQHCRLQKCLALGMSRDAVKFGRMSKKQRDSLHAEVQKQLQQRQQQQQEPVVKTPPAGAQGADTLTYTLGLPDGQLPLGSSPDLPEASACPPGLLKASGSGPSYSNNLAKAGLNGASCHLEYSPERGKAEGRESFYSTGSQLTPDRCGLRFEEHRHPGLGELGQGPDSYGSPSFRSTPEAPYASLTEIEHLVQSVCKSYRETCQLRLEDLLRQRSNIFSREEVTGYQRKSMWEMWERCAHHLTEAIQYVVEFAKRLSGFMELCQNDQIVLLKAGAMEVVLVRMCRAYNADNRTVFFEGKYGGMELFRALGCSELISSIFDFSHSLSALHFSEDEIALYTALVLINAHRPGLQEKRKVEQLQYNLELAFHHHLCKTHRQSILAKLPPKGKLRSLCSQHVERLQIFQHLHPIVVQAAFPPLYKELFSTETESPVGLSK

cells [2] = conditions: Homo sapiens, PBMC
Description: Inhibition of IL-17 production in human PBMC

[3] = target: T1, Nuclear receptor ROR-gamma; test: Inhibition of human RORgammat expressed in COS7 cells by luciferase assay; type: cell-based
[4] = target: T1, Nuclear receptor ROR-gamma; test: Inverse agonist activity at His-tagged human RORgammat LBD assessed as inhibition of biotinylated RIP140 co-activator peptide binding incubated for 1 hr by TR-FRET assay
[5] = Oral bioavailability in rat; type: ADME, organism-based; conditions: in vivo
[6] = Unbound fraction in rat blood; type: ADME, tissue-based
Homo sapiens [7] = organism: Homo sapiens; test: Inhibition of IL-17 production in human whole blood measured after 72 hrs by ELISA; type: functional
[8] = Unbound fraction in human blood; type: ADME, tissue-based
[9] = target: T1, Nuclear receptor ROR-gamma; test: Inverse agonist activity at GAL4-RORgammat LBD (unknown origin) expressed in HEK293 cells measured after 18 to 24 hrs by nuclear receptor assay; type: cell-based
[10] = target: T1, Nuclear receptor ROR-gamma; test: Inhibition of biotinylated human RORgammat by FRET assay
[11] = target: T2, Nuclear receptor ROR-gamma (Homo sapiens) (UniProt P51449); test: Inverse agonist activity at GAL4-RORgammat LBD (unknown origin) expressed in HEK293 cells at 1 uM measured after 24 hrs by nuclear receptor assay relative to control; type: cell-based
T2 sequence (whole entry): T1 sequence (P51449 whole entry)

[12] = Inhibition of IL-22 production in human PBMC by ELISA; type: functional, cell-based
[13] = Inhibition of IL-17A production in human PBMC by ELISA; type: functional, cell-based
[14] = Inhibition of IL-21 production in human PBMC by ELISA; type: functional, cell-based
[15] = Inhibition of IL-17F production in human PBMC by ELISA; type: functional, cell-based
hERG (KCNH2) = hERG (KCNH2) (Homo sapiens, UniProt Q12809); test: Inhibition of human ERG at 3 uM relative to control; type: toxicity
Sequence of hERG (KCNH2) (Q12809 whole entry, the tested form may be a part): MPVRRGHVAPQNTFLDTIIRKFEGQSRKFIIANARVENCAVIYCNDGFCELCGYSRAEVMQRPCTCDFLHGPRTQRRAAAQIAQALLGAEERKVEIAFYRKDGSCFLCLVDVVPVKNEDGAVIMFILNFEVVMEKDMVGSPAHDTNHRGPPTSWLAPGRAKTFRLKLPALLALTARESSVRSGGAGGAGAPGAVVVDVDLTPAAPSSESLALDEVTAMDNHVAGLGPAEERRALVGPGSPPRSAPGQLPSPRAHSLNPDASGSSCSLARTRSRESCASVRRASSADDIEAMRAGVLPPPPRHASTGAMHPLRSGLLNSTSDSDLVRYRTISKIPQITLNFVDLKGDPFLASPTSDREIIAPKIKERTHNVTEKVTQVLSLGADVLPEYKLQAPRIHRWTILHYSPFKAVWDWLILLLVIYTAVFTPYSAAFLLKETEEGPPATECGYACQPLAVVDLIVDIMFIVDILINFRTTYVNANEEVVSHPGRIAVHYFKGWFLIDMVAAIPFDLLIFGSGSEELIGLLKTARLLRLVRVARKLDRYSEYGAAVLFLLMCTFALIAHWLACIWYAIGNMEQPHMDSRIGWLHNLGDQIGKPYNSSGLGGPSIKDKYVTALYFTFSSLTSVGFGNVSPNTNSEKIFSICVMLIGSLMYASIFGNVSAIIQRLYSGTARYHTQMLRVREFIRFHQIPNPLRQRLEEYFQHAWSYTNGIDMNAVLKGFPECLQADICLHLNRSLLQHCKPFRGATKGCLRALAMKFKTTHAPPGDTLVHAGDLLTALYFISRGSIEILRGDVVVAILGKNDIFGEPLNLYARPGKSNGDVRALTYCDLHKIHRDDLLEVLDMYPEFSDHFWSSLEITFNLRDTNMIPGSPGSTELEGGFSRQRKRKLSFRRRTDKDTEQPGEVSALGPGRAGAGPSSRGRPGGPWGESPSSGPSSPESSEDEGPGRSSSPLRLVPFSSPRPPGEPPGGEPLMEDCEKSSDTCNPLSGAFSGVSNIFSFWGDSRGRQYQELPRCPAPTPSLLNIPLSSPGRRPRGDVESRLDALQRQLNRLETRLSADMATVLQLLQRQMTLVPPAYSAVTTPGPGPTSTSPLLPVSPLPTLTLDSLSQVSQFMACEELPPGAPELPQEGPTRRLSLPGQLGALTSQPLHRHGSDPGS

[16] = target: T1, Nuclear receptor ROR-gamma; test: Inhibition of human GAL4-fused RORgamma LBD transfected in HEK293T cell measured after 24 hrs by luciferase reporter assay; type: cell-based
Homo sapiens [17] = organism: Homo sapiens; test: tissue or blood
Description: Inhibition of IL-17A secretion in healthy human whole blood

[18] = Half life in rat; type: ADME; conditions: in vivo
[19] = Unbound fraction in human plasma; type: ADME, cell-free
[20] = Half life in dog; type: ADME, Canis lupus familiaris; conditions: in vivo
[21] = Oral bioavailability in dog; type: ADME, organism-based, Canis lupus familiaris; conditions: in vivo
[22] = Solubility of the compound; type: physicochemical
Mus musculus [23] = organism: Mus musculus; test: animal or person; conditions: po, read-out: INH
Description: Anti-inflammatory activity against mouse EAE model assessed as reduction in EAE score at 100 mg/kg, po relative to control

cells [24] = conditions: Homo sapiens, PBMC; remark: listed apart in the source
Description: Inhibition of IL-17A secretion in human PBMC cells

Homo sapiens [25] = organism: Homo sapiens; test: tissue or blood; remark: listed apart in the source
Description: Inhibition of IL-17A secretion in psoriatic human whole blood

cells [26] = conditions: Homo sapiens, Th17
Mus musculus [27] = test: Anti-arthritis activity against collagen-induced arthritis DBA/1Lacj mouse model assessed as arthritis clinical score at 30 mg/kg, po twice daily from day 21 to 35 relative to control; type: functional; conditions: 504 h
[28] = Inhibition of IL-17A production in human PBMC derived from rheumatoid arthritis; type: functional, cell-based
Mus musculus [29] = test: Anti-arthritis activity against collagen-induced arthritis DBA/1Lacj mouse model assessed as arthritis clinical score at 60 mg/kg, po twice daily from day 21 to 35 relative to control; type: functional; conditions: 504 h
Mus musculus [30] = test: Anti-arthritis activity against collagen-induced arthritis DBA/1Lacj mouse model assessed as arthritis clinical score at 10 mg/kg, po twice daily from day 21 to 35 relative to control; type: functional; conditions: 504 h
cells [31] = conditions: Homo sapiens, PBMC, 96 h
Description: Inhibition of IL17 production in human PBMC cells measured after 4 days by enzyme-linked immunosorbent assay

Mus musculus [32] = test: Anti-arthritis activity against glucose-6-phosphate isomerase-induced arthritis DBA/1 mouse model assessed as reduction in paw swelling clinical score at 1000 mg/kg, po; type: functional
[33] = Suppression of Th17 polarization in human CD4+ T cells cultured under Th17-skewing conditions measured after 4 days
[34] = target: T2, Nuclear receptor ROR-gamma (Homo sapiens); test: Inhibition of human RORgamma by TR-FRET assay relative to control
[35] = Inhibition of IL-17 production in human Th17 cells relative to control; type: functional

Structure (SMILES): NC(=O)Cc1ccc(CNc2ncnc(N3CCOC[C@@H]3c3ccc(C(F)(F)F)cc3)c2F)cc1
inhibition [11]: 80%

Structure (SMILES): O=S(=O)(c1ccccc1)N1CCC(Cn2ncc3cc(-c4cn[nH]c4)ccc32)CC1
IC50 [12]: < 10000 nM | IC50 [13]: < 10000 nM | IC50 [14]: < 10000 nM | IC50 [15]: < 10000 nM

Structure (SMILES): CC[C@H]1c2ncc(C(=O)N[C@@H](CO)c3ccc(S(=O)(=O)CC)cn3)cc2CN1C[C@H]1CC[C@H](C(F)(F)F)CC1
inhibition at 3 µM (hERG (KCNH2)): 7.7%

Structure (SMILES): O=C(O)CC1CN(Cc2ccc(-c3ccc(C(O)(C(F)(F)F)C(F)(F)F)cc3)cc2)CCN1Cc1ccncc1 (stereo unspecified)
IC50 [1]: > 10000 nM

Structure (SMILES): CCS(=O)(=O)c1ccc(CNC(=O)c2cnc3c(c2)CN(C[C@H]2CC[C@H](C(F)(F)F)CC2)[C@H]3C(C)C)nc1
IC50 (Homo sapiens [17]): 207 nM | half-life [18]: 6 h | fraction unbound [19]: 0.005 | bioavailability [5]: 64% | half-life [20]: 15 h | bioavailability [21]: 66% | solubility [22]: 17 µM (≈ 9.4 µg/mL) | inhibition in vivo at 100 mg/kg (Mus musculus [23]): > 95% | IC50 (cells [24]): 21 nM | IC50 (Homo sapiens [25]): 250 nM

Structure (SMILES): COc1nc2ccc([C@](O)(c3ccc(C)nc3C)c3cnnn3C)cc2c(Cl)c1Cc1ccc(C(F)(F)F)cc1
inhibition in vivo at 30 mg/kg (Mus musculus [27]): 46% | IC50 [28]: 5 nM | inhibition in vivo at 60 mg/kg (Mus musculus [29]): 78% | inhibition in vivo at 10 mg/kg (Mus musculus [30]): 32%

Structure (SMILES): CCS(=O)(=O)c1ccc(CNC(=O)c2cc3c(s2)C2(CCN([C@H](C)c4cnc(C(F)(F)F)nc4)CC2)O[C@@H](C)C3)nc1
IC50 (cells [24]): 20 nM | inhibition in vivo at 1000 mg/kg (Mus musculus [32]): 75%

Structure (SMILES): Cc1cnccc1-c1nc(-c2ccccc2)c2c(n1)[C@]1(C)C=C(C#N)C(=O)[C@H](C)[C@H]1CC2
IC50 [16]: 40 nM | IC50 [33]: 39 nM

Structure (SMILES): O=C(Nc1ccc2c(c1)CN(S(=O)(=O)c1cccc(C(F)(F)F)c1)CCO2)c1c(F)cccc1Cl
Efficacy [34]: -69% | Efficacy [35]: -73% | IC50 (cells [26]): 180 nM

Other lines, results leading:

IC50 [1]: < 1000 nM
Structure (SMILES): CCOC(=O)CC1CN(Cc2ccc(-c3ccc(C(O)(C(F)(F)F)C(F)(F)F)cc3)cc2)CCN1Cc1ccncc1 (stereo unspecified)

IC50 (cells [2]): 6.6 nM | IC50 [3]: 2.1 nM
Structure (SMILES): CCS(=O)(=O)c1ccc(CC(=O)Nc2cc(Cl)c(C3(c4noc(-c5ccc(F)cc5)n4)CC3)c(Cl)c2)cc1

IC50 [4]: 13 nM | bioavailability [5]: 23% | fraction unbound [6]: 0.256 | IC50 (Homo sapiens [7]): 168 nM | fraction unbound [8]: 0.312
Structure (SMILES): Cc1ncc(C(=O)Nc2cn3ccnc3c(CN3CCN(C(=O)C4CCCC4)[C@@H](C)C3)c2C)cn1

IC50 [9]: 17 nM | IC50 [10]: 5 nM
Structure (SMILES): Cc1ccc([C@H](NC(=O)Cc2ccc3oc([C@@H](O)c4c(C)noc4C)cc3c2)c2ccccc2)c(C)c1

IC50 [16]: 60 nM
Structure (SMILES): CCS(=O)(=O)c1ccc(CNc2nc3c(C)nc(-c4c(C)ncnc4C4CC4)nc3n([C@@H](C)C3CC3)c2=O)nc1

IC50 (cells [26]): 2.8 nM
Structure (SMILES): C[C@H]1CCCCN1C(=O)c1nc(C(=O)NCC(C)(C)O)sc1-c1cnc(NCC(C)(C)C)cc1C(F)(F)F

IC50 (cells [31]): 39.6 nM
Structure (SMILES): O=C(O)c1ccc(-c2nn(C(=O)c3c(Cl)cccc3C(F)(F)F)c3ccccc23)cc1
